Measurements from US20140371158A1, “BEAUVERICIN COMPOSITIONS AND METHODS THEREOF FOR INHIBITING THE HSP90 CHAPERONE PATHWAY” (Georgia Regents University, priority 2013, published 2014).
≈ marks a conversion by molar mass, not a printed value.

Legend:
[1] = tested on: Hsp90 client proteins in Hs578T cells; experiment: Western blot of Hsp90 client proteins, Hs578T; format: cell-based; details: 3 μM, 48 h
Method: (§1) Breast cancer cell lines Hs578T and MDA-MB-453 at 40% confluence in 6-well plates (Corning #3516) were cultured for 24 h and then treated with various concentrations of beauvericin. Cells were harvested at indicated time and cell lysates were made. 15 μg of protein lysate were analyzed by Western blotting using specific antibodies for the indicated proteins.
(§2) Cell lysates prepared in Example 5 were analyzed for markers for heat shock response using western blot. These include overexpression of Hsp70, Hsp27, Hsp40 and HOP.

[2] = Sigma-Aldrich product B7510, powder; cited from earlier work
[3] = tested on: HeLa-PRB cells; experiment: Immunocytochemistry and fluorescence microscopy, nucleocytoplasmic trafficking of steroid receptors; format: cell-based
Method: HeLa-PRB cells were grown in 24-well plates (Corning #3337) on micro-cover glasses (Electron Microscopy Sciences) to about 50% confluence in MEM, 1× (Cellgro #10-010-CV) medium supplemented with 10% fetal bovine serum. Cells were treated with 3 μM beauvericin (or DMSO control) for 24 h. Cells were fixed with 0.1 M PIPES, pH 6.95, 1 mM EGTA, pH 8.0, 3 mM MgSO4, 3% paraformaldehyde, permeabilized with 0.1% triton X-100, and blocked with 10% fetal bovine serum with 5% glycerol and stored at 4° C. Primary antibodies against PRB, GR and Hsp90 and secondary antibodies were prepared in the blocking buffer. Coverslips were washed and mounted on slides with ProLong Gold anti-fade reagent with 4′,6-diamidino-2-phenylindole (Invitrogen). Cells were imaged using a Zeiss Imager M1 microscope. Deconvolution of Z-stack images was done using an inverse filter algorithm with auto-linear normalization.

[4] = tested on: MDA-MB-453 breast cancer cells; experiment: Cytotoxicity assay, MDA-MB-453; format: cell-based; details: 0-10 μM, 24, 48, 72 h, FIG. 6B
[5] = tested on: Hsp90, Hsp70, Hsp40, HOP and p23; experiment: PR reconstitution assay using the five purified chaperones; format: biochemical; details: FIG. 4
Method: (§3) Purified PR was adsorbed onto PR22 antibody-protein A-sepharose resin beads and was assembled into complexes as described previously (Kosano, et al., J Biol Chem 273:32973-9 (1998)). Briefly, about 0.05 μM PR was incubated with 1.4 μM Hsp70, 0.8 μM Hsp90β, 0.2 μM Hsp40 (Ydj), 0.08 μM HOP and 2.6 μM p23 in reaction buffer (20 mM Tris/HCl, pH 7.5, 5 mM MgCl2, 2 mM DTT, 0.01% NP-40, 50 mM KCl and 5 mM ATP). After incubation for 30 min at 30° C., 0.1 μM [^3H]-progesterone (American Radiolabeled Chemicals, Inc #ART 0063) was added. Samples were incubated on ice for 3 h at 4° C. Complexes were then washed three times with 1 ml of reaction buffer and assessed for bound progesterone by liquid scintillation using PerkinElmer Microbeta plate reader and for composition of protein complexes by SDS-PAGE (10% gel) and Coomassie blue staining.

[6] = tested on: Hsp90 client proteins in MDA-MB-453 cells; experiment: Western blot of Hsp90 client proteins, MDA-MB-453; format: cell-based; details: 3 μM, 48 h
Method: as §1, §2

[7] = tested on: Hsp70, Hsp27, Hsp40 and HOP in Hs578T and MDA-MB-453 cells; experiment: Western blot of markers for heat shock response; format: cell-based; details: 3 μM, 48 h, FIG. 7
Method: as §1, §2

[8] = tested on: Hsp90 chaperone (refolding of PRA in RRL); experiment: Progesterone receptor (PR) reconstitution assay in rabbit reticulocyte lysate, recovery of hormone binding activity; format: biochemical
Source text: To identify novel small molecule inhibitors of molecular chaperones, a high-throughput functional screen was developed based on the isoform A of progesterone receptor (PRA), a well-established physiological client of Hsp90, and using rabbit reticulocyte lysate (RRL) as a source of molecular chaperones. This comprehensive functional assay measured the recovery of hormone binding activity of PRA after mild heat treatment. Purified PR was adsorbed onto PR22 antibody bound to protein A that was absorbed on 96 well plates. 100 μl of RRL lysate and ATP regeneration system was added to each well. After incubation for 30 min at 30° C., 0.1 μM [^3H]-progesterone (American Radiolabeled Chemicals, Inc #ART 0063) was added. Plates were incubated on ice for 2 h at 4° C. Complexes were then washed three times with 200 μl of reaction buffer (20 mM Tris/HCl, pH 7.5, 5 mM MgCl2, 2 mM DTT, 0.01% NP-40, 50 mM KCl and 5 mM ATP) and assessed for bound progesterone by liquid scintillation using PerkinElmer Microbeta plate reader.
Beauvericin was added to the PR reconstitution assay as in example 1, and hormone binding activity was measured.

[9] = tested on: Hs578T breast cancer cells; experiment: Cytotoxicity assay, Hs578T; format: cell-based; details: 0-10 μM, 24, 48, 72 h, FIG. 6A
[10] = tested on: PRA complexes; experiment: PR reconstitution assay in tubes, composition of protein complexes by SDS-PAGE; format: biochemical, rabbit; details: FIG. 3
Method: as §3, with “Biol Chem,” for “Biol Chem”, “with 100 μl of RRL.” for “with 1.4 μM Hsp70, 0.8 μM Hsp90β, 0.2 μM Hsp40 (Ydj), 0.08 μM HOP and 2.6 μM p23 in reaction buffer (20 mM Tris/HCl, pH 7.5, 5 mM MgCl2, 2 mM DTT, 0.01% NP-40, 50 mM KCl and 5 mM ATP).”, “ml” for “ml of”, “buffer (20 mM Tris/HCl, pH 7.5, 5 mM MgCl2, 2 mM DTT, 0.01% NP-40, 50 mM KCl and 5 mM ATP)” for “buffer”, “plate reader,” for “plate reader”

CC(C)[C@@H]1OC(=O)[C@@H](Cc2ccccc2)N(C)C(=O)[C@H](C(C)C)OC(=O)[C@@H](Cc2ccccc2)N(C)C(=O)[C@H](C(C)C)OC(=O)[C@@H](Cc2ccccc2)N(C)C1=O [beauvericin]
AKT destabilization [1]: destabilized
Her2 destabilization [1]: reverse profile
cellular degradation of Hsp90 clients (AKT, pAKT, CDK4, ILK, Her2, Her3, GR) ([1]; FIG. 7A): caused cellular degradation
solubility in acetonitrile [2]: 1000 µg/mL (≈ 1280 µM)
solubility in methanol [2]: 1000 µg/mL (≈ 1280 µM)
PRB stability by Western blot ([3]; HeLa-PRB cells): not destabilized
PRB recognition by the monoclonal antibody PR6 in immunocytochemistry ([3]; HeLa-PRB, 3 μM, 24 h): reproducibly blocked
glucocorticoid receptor (GR) localization ([3]; HeLa-PRB, 3 μM, 24 h): lock it in the nucleus
in vitro cytotoxicity (relative survival) [4]: potent in vitro cytotoxicity
inhibitory activity on five-protein system (PRA reconstitution) [5]: no inhibitory activity
AKT destabilization [6]: not
Her2 destabilization [6]: reverse profile
cellular degradation of Hsp90 clients (AKT, pAKT, CDK4, ILK, Her2, Her3, GR) ([6]; FIG. 7B): caused cellular degradation
Hsp40 expression [7]: down-regulates
overexpression of HOP [7]: does not induce overexpression
overexpression of Hsp27 ([7]; in contrast to 17-AAG): does not induce overexpression
overexpression of Hsp70 ([7]; in contrast to 17-AAG): does not induce overexpression
inhibition of reconstitution of PRA in RRL (hormone binding activity) ([8]; FIG. 1, compared with 17-AAG): comparable efficacy to the classical Hsp90 inhibitor 17-AAG
inhibition of the ability of the Hsp90 chaperone to refold PRA ([8]; FIG. 2, 0, 1, 5, 10, 20, 40 μM): concentration-dependent manner
in vitro cytotoxicity (relative survival) [9]: potent in vitro cytotoxicity
level of Hsp90 in PRA complexes [10]: decreased
recruitment of Exportin-7 into PRA complexes ([10]; mass spectrometry): caused the recruitment of a novel protein into these complexes
